In patent publication US20080254080A1, “Novel Uses of Calcium Hydroxide” (priority 2004, published 2008):

Key:
H5N1 virus = settings: cited from earlier work
[1] = tested on: warts, toe and foot fungus, skin tags; experiment: Topical use of hydrated lime; settings: in vivo
[2] = tested on: different bacterial strains including Bacillus subtilis; settings: agar diffusion; hydrated spores; cited from earlier work

**Q.** For `CC(N)C12CC3CC(CC(C3)C1)C2` (stereo not shown) [rimantadine], which “susceptibility of H5N1 virus currently infecting birds in Asia” value (H5N1 virus) is on record?
**A.** resistant

**Q.** With `NC12CC3CC(CC(C3)C1)C2` [amantadine] as the compound, how does the “susceptibility of H5N1 virus currently infecting birds in Asia” value (H5N1 virus) read?
**A.** resistant

**Q.** With `[Ca+2].[OH-].[OH-]` [calcium hydroxide] as the compound, how does the “removal of warts, toe and foot fungus, skin tags” value [1] read?
**A.** shown to remove warts, toe and foot fungus, skin tags

**Q.** And the “antimicrobial activity compared with the other antimicrobial agents (MTA, Portland cement, Sealapex, Dycal)” value [2]?
**A.** superior
